The target in one data set is T1, NOX2 (Homo sapiens, UniProt P14598).
T1 construct: HL-60 cells expressed the components of NOX2, including gp91, p22^phox, p47^phox, and p67^phox; endogenous in cells; whole cells in A1, membrane preparations in A3 and A4
T1 sequence (P14598 1-390): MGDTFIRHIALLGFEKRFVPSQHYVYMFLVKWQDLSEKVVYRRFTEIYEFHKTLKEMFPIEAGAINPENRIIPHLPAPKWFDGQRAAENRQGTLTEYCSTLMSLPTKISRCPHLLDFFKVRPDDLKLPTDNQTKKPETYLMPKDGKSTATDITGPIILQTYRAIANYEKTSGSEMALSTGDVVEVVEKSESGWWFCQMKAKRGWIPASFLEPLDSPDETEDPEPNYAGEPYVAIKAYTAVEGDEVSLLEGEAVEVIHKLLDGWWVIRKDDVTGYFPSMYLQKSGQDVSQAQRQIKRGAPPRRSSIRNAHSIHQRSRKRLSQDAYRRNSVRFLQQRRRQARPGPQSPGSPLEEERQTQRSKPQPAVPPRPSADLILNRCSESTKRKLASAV
Briefly: NADPH oxidase (NOX2) inhibition, DCF fluorescence in PMA-activated neutrophil-differentiated HL-60 cells. It counts as cell-based. Conditions: for IC50: neutrophil-differentiated HL-60 cells, PMA 0.8 µM, DCF fluorescence, 0.05 to 50 µM. The procedure:
The differentiation of HL-60 cells to neutrophils was performed after reaching a concentration of between 2 × 10^6 and 5 × 10^6 cells/mL in the differentiation medium: RPMI 1640 medium; 10% FBS; 100 IU/mL of penicillin/streptomycin; and 1.3% DMSO for 7 days, replenishing the differentiation medium every 2 days.
The 2′,7′-dichlorofluorescein (DCF) fluorescence analysis was used to determine NADPH oxidase activity in neutrophil-differentiated HL-60 cells. The method, based on a fluorimetric assay, was adapted from Boly et al.. Briefly, 1 × 10^6 neutrophil-differentiated HL-60 cells/mL were incubated for 45 min. at 37 °C in darkness with DCF-DA (1 mg/mL). The cell suspension was then transferred to a 15 mL conical tube and centrifuged at 330× g × 10 min at 37 °C. After the supernatant was removed, the cells were re-suspended in Hanks balanced saline buffer (HBSS, Sigma-Aldrich, St. Louis, MO, USA) and transferred to dark 96-well plates with a flat glass bottom (Thermo Scientific Nunc 96 microwell® black, Optical Botton # 1.5 Cover Glass Base, Thermo Fisher Scientific). Then, 200 μL of cell suspension per well were incubated at 37 °C for 30 min with the indole heteroaryl-acrylonitriles at increasing concentrations (0.05 to 50 μM). […] Finally, PMA (0.8 μM) was added to each well for 10 min. to generate the activation of NOX2. The generation of the DCF fluorescence product was monitored in an automatic microplate reader (FLx800, BioTek Instruments, Winooski, VT, USA) at 1-min intervals at 37 °C for 1 h, using an excitation wavelength of 485 nm and an emission wavelength of 555 nm. The ability to inhibit ROS production by activated neutrophil-differentiated HL-60 cells was compared against the different controls. A control was performed with cells activated by PMA in the presence of DMSO and established as having 100% of the ROS-induced fluorescence. Inhibition control was performed in the presence of VAS2870 (20 µM) and activated by PMA. Another control (NA, not activated) was done with cells in the absence of PMA and the indole heteroaryl-acrylonitriles.
All the experiments were performed in triplicate, using three different cell preparations, and the data were reported as mean ± s.e.m. For the determination of the IC50 of the indole heteroaryl-acrylonitriles, concentration-response curves (0.05 to 50 μM) were constructed. IC50 values were given as the mean ± standard deviation for at least three independent assays. The data were analyzed using one- and two-way ANOVA. A value of p < 0.05 was considered statistically significant. Statistical analyses were performed using the program GraphPad Prism® version 6.00, San Diego, CA, USA.

Data set [1] is described as follows: DPPH radical scavenging activity. It counts as physicochemical. The procedure:
The newly synthesized compounds were evaluated for 2,2-diphenyl-1-picrylhydrazyl […] free radical scavenging activity. The reduction and stabilization of DPPH by antioxidant compounds lead to discoloration, resulting in a decrease in absorbance at 517 nm, which was expressed as a percentage of the radical solution at a given concentration of discoloration. The heteroarylacrylonitrile derivatives were re-suspended in a minimum of DMSO at a final concentration of 5 mg/mL (stock solution). From these, they were diluted to concentrations of 1000, 500, and 100 μg/mL. These solutions were mixed with a methanol solution of DPPH (20 μg/mL) for 5 min. Each compound was evaluated in triplicate; absorbance at 517 nm in a UNICAM UV/visible spectrophotometer Helios-α (Thermo Electron Corporation, Waltham, MA USA) was measured by subtracting the solvent absorbance and comparing the resulting value with that of a blank sample. The percentage of discoloration was established according to the following formula: % Radical removal or discoloration = (1 − (AM − ABM)/AC) × 100, where AM is the absorbance of the sample compound, ABM is the absorbance of the sample blank, and AC is the absorbance of the control. The degree of discoloration indicates the efficacy of the compounds studied as free radical scavengers; therefore, a percentage of discoloration of 100 indicates the maximum radical scavenging capacity and a value close to 0 indicates a zero radical scavenging capacity. Quercetin was used as a reference compound in a concentration range of 1.25 to 7.5 μg/mL.
In general terms: DPPH is a stable violet radical that fades when it is reduced.

The next data set concerns HL-60 cells. Briefly: MTT cytotoxicity assay. Format: cell-based, human. Conditions: 72 h, 0.01 µM to 100 µM, MTT. The procedure: (§1) To verify the cytotoxicity of the acrylonitrile derivatives, the MTT reduction method was performed. Briefly, HL-60 cells were seeded in a flat-bottomed 96-well plate at a density of 10,000 cells per well. […] In a second series of experiments, cells were incubated under the same conditions but for 72 h. Etoposide was used as a positive control. Ten μL of MTT was added at a final concentration of 0.5 mg/mL, incubated at 37 °C for 4 h, and then solubilized with 10% SDS in 0.1 mM HCl and incubated overnight at 37 °C. Finally, a blue-colored compound (formazan) formation was measured at 570 nm in a multiplate reader (StatFax 4200, Awareness Technology, Inc., Palm City, FL, USA). The viability percentage was obtained as follows: Viability % = [treated cells DO × 100]/[DO cells control].
On the technique in general: Tetrazolium dyes change colour on reduction, which living cells bring about.

Another data set in a line: MTT cytotoxicity assay. It counts as cell-based, human. Conditions: human; HL-60 cells, 24 h, 10 mM, MTT; read-out: cell viability. The method, then: as §1

The structures appear in SMILES notation.

Usually IC50 stands for the concentration at which inhibition is half-maximal. `N#C/C(=C\c1cc(-c2ccc(F)cc2)on1)C(=O)c1c[nH]c2ccccc12` [Compound C5] displayed an IC50 against NOX2 of 6.2 ± 0.4 µM.

As for `Cc1ccc2occ(/C=C(\C#N)C(=O)c3c[nH]c4ccccc34)c(=O)c2c1` [Compound C9], at NOX2 (PMA-activated HL-60 cells, 0.05 µM to 50 µM), the “inhibition of NOX2-derived ROS production (in words)” value is “exhibited concentration-dependent inhibition of NOX2”. For the same compound, half-maximal inhibition against NOX2 (IC50) required 4.7 ± 0.3 µM. The “antioxidant capacity, DPPH discoloration (in words)” value (“antioxidant capacity” for short) in data set [1] is “showed antioxidant capacity only at very high concentrations”. Moreover, in the data set on HL-60 cells, the “cytotoxicity (in words)” value is listed as “non-cytotoxic”.

`CCc1ccc2occ(/C=C(\C#N)C(=O)c3c[nH]c4ccccc34)c(=O)c2c1` [Compound C11] showed a half-inhibitory concentration (IC50) against NOX2 of 19.9 ± 0.2 µM.

One may read the viability as a per cent measure of how many cells are alive, often set against a control. On to `N#C/C(=C\c1coc2ccccc2c1=O)C(=O)c1c[nH]c2ccccc12` [Compound C10], for which 9.4 ± 0.3 µM corresponded to half-maximal inhibition against NOX2 (IC50). Besides, the viability at 24 h, 10 mM in “MTT cytotoxicity assay” was 60%.

For the compound `N#C/C(=C\c1ccc(-c2ccccc2)cc1)C(=O)c1c[nH]c2ccccc12` [Compound C3], in the data set with HL-60 cells, the “cytotoxicity (in words)” value is reported as “non-cytotoxic”.

On NOX2, `CC(C)(C)OC(=O)N1CCN(c2ccc(/C=C(\C#N)C(=O)c3c[nH]c4ccccc34)cc2)CC1` [Compound C15] gave an IC50 of 30.4 ± 0.3 µM.

Take `N#C/C(=C\c1ccc(-c2ccc([N+](=O)[O-])cc2)o1)C(=O)c1c[nH]c2ccccc12` [Compound C7]: at NOX2, the IC50 turned out to be 68.1 ± 1.2 µM.

Compound `CC(=O)OCc1ccc(/C=C(\C#N)C(=O)c2c[nH]c3ccccc23)o1` [Compound C17] gave a 50% inhibitory concentration (IC50) at NOX2 of 19.7 ± 0.2 µM.

Consider `N#C/C(=C\c1ncc[nH]1)C(=O)c1c[nH]c2ccccc12` [Compound C18], for which the half-inhibitory concentration (IC50) against NOX2 turned out to be 51.3 ± 0.2 µM.

At NOX2, `N#C/C(=C\c1cccnc1)C(=O)c1c[nH]c2ccccc12` [Compound C13] showed an IC50 of 16.3 ± 0.2 µM.

As to `N#C/C(=C\c1c(N)oc2ccccc2c1=O)C(=O)c1c[nH]c2ccccc12` [Compound C12], the IC50 at NOX2 came to 21.1 ± 0.2 µM.

Regarding `N#C/C(=C\c1ccco1)C(=O)c1c[nH]c2ccccc12` [Compound C16], at NOX2, the IC50 amounted to 82.7 ± 0.2 µM.

On to `N#C/C(=C\c1ccc(N2CCOCC2)cc1)C(=O)c1c[nH]c2ccccc12` [Compound C4], for which the midpoint of inhibition on NOX2, the IC50, lay at 7.1 ± 0.4 µM. In addition, the “antioxidant capacity” value in data set [1] was “showed antioxidant capacity only at very high concentrations”. Also, the viability at 24 h, 10 mM in “MTT cytotoxicity assay” amounted to 60%.

Consider `N#C/C(=C\c1ccc(-c2ccc(Cl)cc2)o1)C(=O)c1c[nH]c2ccccc12` [Compound C1], for which it took 21.5 ± 0.3 µM to reach half-maximal inhibition against NOX2 (IC50). In addition, the viability at 24 h, 10 mM in “MTT cytotoxicity assay” turned out to be 60%.

The compound `Cc1nn(-c2ccccc2)c(Cl)c1/C=C(\C#N)C(=O)c1c[nH]c2ccccc12` [Compound C2] had an IC50 on NOX2 of 7.2 ± 0.3 µM.

Regarding `Cn1ccnc1/C=C(\C#N)C(=O)c1c[nH]c2ccccc12` [Compound C19], on NOX2, the half-inhibitory concentration (IC50) is 69.3 ± 0.2 µM. Compared with the last compound, the IC50 is about 9.6-fold higher.

For `CC(C)c1ccc2occ(/C=C(\C#N)C(=O)c3c[nH]c4ccccc34)c(=O)c2c1` [Compound C8], the IC50 against NOX2 amounted to 17.1 ± 0.2 µM. The “antioxidant capacity” value in data set [1] was “showed antioxidant capacity only at very high concentrations”. Also, the viability at 24 h, 10 mM in “MTT cytotoxicity assay” was determined as 60%.
